Measured values: the supplement of paper PMC10307832

Tests used:
Assay in all cases: relative viability (nuclei count vs DMSO), 5 days (fraction); higher = more cells survive
[1] = compound: CC1=C(C(=O)N2C=CSC2=N1)CCN3CCC(=C(C4=CC=CC=C4)C5=CC=C(C=C5)F)CC3 + COc1cccc2cc(-c3nc([C@H]4CC[C@H](C(=O)O)CC4)n4ncnc(N)c34)[nH]c12 [OSI-027] (partner 0.5 µM)
Summary of the method: (§1)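 Cells from lung cancer lines were seeded into 1536-well plates and, one day later, dosed by pin tool. Treatments were either a single drug or a fixed dose of an anchor drug with five library-drug doses (not always all listed) in √10 steps. After 5 days, nuclei were stained in a one-step fixation (final 0.05% Triton X-100, 1% formaldehyde, 1 ug/ml Hoechst) and counted on 4× images, and relative viability is the treated-to-vehicle nuclei ratio, as the median of duplicate plates.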

[2] = compound: CC1=C(C(=O)N2C=CSC2=N1)CCN3CCC(=C(C4=CC=CC=C4)C5=CC=C(C=C5)F)CC3 + C[C@]1(O)C[C@@H](c2nc(-c3ccc4ccc(-c5ccccc5)nc4c3)c3c(N)nccn32)C1 [Linsitinib] (partner 1 µM)
Summary of the method: as §1

[3] = compound: CC1=C(C(=O)N2C=CSC2=N1)CCN3CCC(=C(C4=CC=CC=C4)C5=CC=C(C=C5)F)CC3 + CCNC(=O)c1noc(-c2cc(C(C)C)c(O)cc2O)c1-c1ccc(CN2CCOCC2)cc1 [Luminespib] (partner 0.01 µM)
Summary of the method: as §1

[4] = compound: CC1=C(C(=O)N2C=CSC2=N1)CCN3CCC(=C(C4=CC=CC=C4)C5=CC=C(C=C5)F)CC3 + CS(=O)(=O)CCNCc1ccc(-c2ccc3ncnc(Nc4ccc(OCc5cccc(F)c5)c(Cl)c4)c3c2)o1 [Lapatinib] (partner 2 µM)
Summary of the method: as §1

| Cell Line | relative viability ([1]; first compound 0.08 µM) | relative viability ([1]; first compound 0.253 µM) | relative viability ([1]; first compound 0.8 µM) | relative viability ([1]; first compound 2.53 µM) | relative viability ([1]; first compound 8 µM) | relative viability ([2]; first compound 0.08 µM) | relative viability ([2]; first compound 0.253 µM) | relative viability ([2]; first compound 0.8 µM) | relative viability ([2]; first compound 2.53 µM) | relative viability ([2]; first compound 8 µM) | relative viability ([3]; first compound 0.08 µM) | relative viability ([3]; first compound 0.253 µM) | relative viability ([3]; first compound 0.8 µM) | relative viability ([3]; first compound 2.53 µM) | relative viability ([3]; first compound 8 µM) | relative viability ([4]; first compound 0.08 µM) | relative viability ([4]; first compound 0.253 µM) | relative viability ([4]; first compound 0.8 µM) | relative viability ([4]; first compound 2.53 µM) | relative viability ([4]; first compound 8 µM) |
| --- | --- | --- | --- | --- | --- | --- | --- | --- | --- | --- | --- | --- | --- | --- | --- | --- | --- | --- | --- | --- |
| HCC-15 | 0.593 | 0.628 | 0.707 | 0.782 | 0.507 | 0.931 | 0.931 | 0.942 | 1.04 | 0.744 | 0.444 | 0.321 | 0.22 | 0.444 | 0.293 | 0.961 | 0.667 | 0.885 | 1.02 | 0.73 |
| HARA | 0.379 | 0.577 | 0.534 | 0.454 | 0.275 | 0.956 | 1.09 | 1.08 | 0.917 | 0.54 | 0.682 | 0.73 | 0.688 | 0.477 | 0.426 | 1.01 | 1.06 | 0.873 | 0.82 | 0.625 |
| LCLC-97TM1 | 0.585 | 0.585 | 0.507 | 0.487 | 0.369 | 0.185 | 0.161 | 0.19 | 0.197 | 0.164 | 0.709 | 0.831 | 0.789 | 0.938 | 0.514 | 0.7 | 1 | 1.08 | 1.03 | 0.677 |
| NCI-H1793 | 0.302 | 0.3 | 0.261 | 0.293 | 0.186 | 0.74 | 0.819 | 1.09 | 0.834 | 0.437 | 0.167 | 0.207 | 0.161 | 0.178 | 0.168 | 0.793 | 0.535 | 0.748 | 0.864 | 0.575 |
| EMC-BAC-2 | 0.35 | 0.353 | 0.372 | 0.37 | 0.291 | 0.8 | 0.804 | 0.882 | 0.825 | 0.627 | 1.23 | 1.15 | 1.28 | 1.16 | 1.03 | 0.744 | 0.924 | 0.89 | 0.877 | 0.773 |
| NCI-H520 | 0.251 | 0.247 | 0.251 | 0.212 | 0.233 | 1.13 | 0.723 | 0.902 | 0.943 | 0.768 | 0.202 | 0.236 | 0.25 | 0.251 | 0.248 | 0.78 | 0.693 | 0.942 | 1.1 | 0.684 |
| H3255 | 0.474 | 0.572 | 0.65 | 0.594 | 0.512 | 1 | 0.888 | 1.02 | 1.03 | 0.726 | 0.796 | 0.892 | 0.786 | 0.961 | 0.709 | 0.221 | 0.32 | 0.249 | 0.309 | 0.246 |
| NCI-H1355 | 0.377 | 0.405 | 0.355 | 0.421 | 0.424 | 0.775 | 0.876 | 0.844 | 0.856 | 0.588 | 0.767 | 0.735 | 0.809 | 0.656 | 0.675 | 1.04 | 0.981 | 1.03 | 0.997 | 0.885 |
| NCI-H1563 | 0.85 | 0.72 | 0.732 | 0.763 | 0.644 | 1.12 | 1.26 | 1.2 | 1.1 | 1.14 | 0.643 | 0.572 | 0.49 | 0.508 | 0.534 | 0.91 | 0.845 | 1 | 1.01 | 0.857 |
| NCI-H1395 | 0.685 | 0.626 | 0.558 | 0.596 | 0.621 | 1.21 | 0.982 | 1.08 | 0.891 | 1.07 | 0.606 | 0.746 | 1.01 | 0.955 | 0.776 | 1.11 | 0.97 | 0.908 | 1 | 0.821 |
| PC-14 | 0.529 | 0.981 | 1.04 | 1.17 | 0.507 | 0.904 | 1.07 | 1.02 | 0.947 | 0.734 | 0.168 | 0.175 | 0.151 | 0.176 | 0.151 | 0.296 | 0.335 | 0.301 | 0.352 | 0.295 |
| 201T | 0.579 | 0.663 | 0.81 | 0.842 | 0.695 | 1.05 | 1.01 | 1 | 1.08 | 1.13 | 1.02 | 1.1 | 1.06 | 1.05 | 0.966 | 1.12 | 1.08 | 0.999 | 1.09 | 1.11 |
| NCI-H1944 | 0.408 | 0.42 | 0.37 | 0.426 | 0.31 | 1.3 | 1.16 | 1.07 | 1.21 | 1.23 | 0.782 | 0.926 | 0.751 | 0.775 | 0.584 | 1.1 | 0.904 | 0.773 | 1.1 | 0.898 |
| NCI-H647 | 0.581 | 0.66 | 0.652 | 0.72 | 0.316 | 1.1 | 0.895 | 1.16 | 1.86 | 0.846 | 0.142 | 0.157 | 0.153 | 0.119 | 0.179 | 1.06 | 1.05 | 1.19 | 1.26 | 0.319 |
| NCI-H1975 | 0.912 | 0.673 | 0.679 | 0.836 | 0.437 | 0.984 | 0.817 | 0.982 | 0.908 | 0.519 | 0.202 | 0.303 | 0.167 | 0.292 | 0.181 | 0.97 | 0.855 | 0.867 | 0.891 | 0.518 |
